Measurements: PubChem BioAssay (NCI)
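Cultured in 96-well plates, cells were exposed to test compound for 48 hours across five concentrations. Abbreviation: GI50, concentration required for 50% inhibition of growth. TGI marks complete inhibition of growth.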

Assays:
Experiment in all cases: inhibition of tumour cell growth, NCI panel, 48 h
U251 CNS = test system: U251 CNS
HT29 colon = test system: HT29 colon
ACHN renal = test system: ACHN renal
SW-620 colon = test system: SW-620 colon
SF-539 CNS = test system: SF-539 CNS
SF-295 CNS = test system: SF-295 CNS
COLO 205 colon = test system: COLO 205 colon
SK-MEL-2 melanoma = test system: SK-MEL-2 melanoma
SNB-19 CNS = test system: SNB-19 CNS
MALME-3M melanoma = test system: MALME-3M melanoma
LOX IMVI melanoma = test system: LOX IMVI melanoma
A498 renal = test system: A498 renal
HS 578T breast = test system: HS 578T breast

SMILES | TGI (U251 CNS) | TGI (HT29 colon) | TGI (ACHN renal) | TGI (SW-620 colon) | TGI (SF-539 CNS) | TGI (SF-295 CNS) | TGI (COLO 205 colon) | TGI (SK-MEL-2 melanoma) | TGI (SNB-19 CNS) | TGI (MALME-3M melanoma) | TGI (LOX IMVI melanoma) | TGI (A498 renal) | TGI (HS 578T breast) | GI50 (HT29 colon) | GI50 (SW-620 colon) | GI50 (SF-295 CNS) | GI50 (HS 578T breast) | GI50 (COLO 205 colon) | GI50 (SK-MEL-2 melanoma)
O=C(O)C1=C(CO)Oc2cc3c(cc2C1c1ccc2c(c1)OCO2)OCO3 (centres undefined) | > 100 µM | > 100 µM | > 100 µM | > 100 µM | > 100 µM | > 100 µM | > 100 µM | > 100 µM | > 100 µM | > 100 µM | > 100 µM |  |  |  |  |  |  |  | 
CC(C)N(CC(=O)O)CC(=O)O | > 100 µM | > 100 µM | > 100 µM | > 100 µM | > 100 µM | > 100 µM | > 100 µM | > 100 µM | > 100 µM | > 100 µM | > 100 µM | > 100 µM | > 100 µM |  |  |  |  |  | 
CC(C)=CCC/C(C)=C/Cc1c2c(c3oc(-c4ccc(O)c(O)c4)c(O)c(=O)c3c1O)C=CC(C)(C)O2 | 10.7 µM | 9.79 µM | 7.83 µM |  | 7 µM | 13.4 µM | 5.33 µM | 13.7 µM | 12.5 µM | 4.01 µM |  | 12.9 µM | 18.7 µM |  |  |  |  |  | 
COc1ccc2c(O)c1-c1c(OC)ccc(c1O)SSc1ccc(OC)c(c1O)-c1c(OC)ccc(c1O)SS2 | 69 µM | > 100 µM | 18.5 µM | > 100 µM | 69.1 µM | > 100 µM | > 100 µM | > 100 µM | > 100 µM | > 100 µM | > 100 µM | > 100 µM | > 100 µM |  |  |  |  |  | 
[O-]c1c2c(nn1-c1ccc(F)cc1)c1ccccc1c[n+]2Cc1ccccc1 | 33.4 µM | 27.1 µM | 28 µM | 48.7 µM | 8.57 µM | 40.4 µM | 4.52 µM | 9.23 µM | > 100 µM | 25.6 µM |  | 85.3 µM |  |  |  |  |  |  | 
C/C(=C\[Si](C)(C)c1ccco1)C(C)(O)[C@H](C)O (some centres undefined) | > 100 µM | > 100 µM | > 100 µM | > 100 µM | > 100 µM | > 100 µM | > 100 µM | > 100 µM | > 100 µM | > 100 µM | > 100 µM | > 100 µM | > 100 µM |  |  |  |  |  | 
CCOC(=O)c1sc2nc(SC)nc3c2c1NC(=O)CN3c1ccc(F)cc1 | > 100 µM | > 100 µM | 93.4 µM | > 100 µM | 33.3 µM | 57.9 µM | > 100 µM | > 100 µM | > 100 µM | > 100 µM | > 100 µM | 98.7 µM | 53.3 µM |  |  |  |  |  | 
C=C(C)[C@@H]1CC[C@]2(C(=O)O)CC[C@]3(C)[C@H](CC[C@@H]4[C@@]5(C)C/C(=C/c6ccco6)C(=O)C(C)(C)[C@@H]5CC[C@]43C)[C@@H]12 |  | > 100 µM |  | 6.89 µM |  | > 100 µM | 4.38 µM | 8.85 µM |  |  |  |  | > 100 µM | 3.05 µM | 2.52 µM | 3.24 µM | 6.66 µM | 2.15 µM | 2.75 µM
COc1cc2cc(C(=O)N3CC(CCl)c4ccc(NO)cc43)[nH]c2c(OC)c1OC (centres undefined) |  | 11.8 µM | 0.723 µM | > 100 µM | 1.99 µM | 0.6 µM | 2.04 µM | 0.325 µM | 11.1 µM | 0.317 µM | 2.56 µM | > 100 µM | 0.954 µM |  |  |  |  |  | 
CC(=O)NC1C(OCc2ccccc2)OC(CO)C(O)C1OCC(=O)NC(C(=O)NC(CCC(=O)NCCCCCC(=O)Nc1ccc2c(c1)CN1C(=O)c3ccccc3C1=N2)C(N)=O)C(C)C (centres undefined) | 39.2 µM | > 100 µM | > 100 µM | > 100 µM | 37.7 µM | 60.8 µM | > 100 µM | 64.8 µM | 47.7 µM | 46.5 µM | > 100 µM | 73.7 µM | 51 µM |  |  |  |  |  | 
CCCCC(CC)C(=O)Oc1ccc(C(=O)c2ccccc2)c(O)c1 (centres undefined) | > 100 µM | > 100 µM | > 100 µM | > 100 µM | > 100 µM | > 100 µM | > 100 µM | > 100 µM | > 100 µM | > 100 µM | > 100 µM | > 100 µM | 64.9 µM |  |  |  |  |  | 
CC1CC(C)(O)C2C3(C)CCCC2(COC3=O)C12CCC1(CCOC1=O)O2 (centres undefined) | > 250 µM | > 250 µM |  | > 250 µM | > 250 µM | > 250 µM | > 250 µM | > 250 µM | > 250 µM | > 250 µM | > 250 µM | 248 µM |  |  |  |  |  |  | 
Cc1csc2nc(-c3cc([N+](=O)[O-])c(Cl)cc3Cl)c(/C=N/N=C(N)N)n12 | 30.5 µM | 30.5 µM | 30.9 µM | 32.5 µM | 35.1 µM | 38.8 µM | 36.8 µM | 26.1 µM | 36.5 µM | 35.3 µM | 33.1 µM | 35 µM | 32.7 µM |  |  |  |  |  | 
COC(=O)[C@]12CC[C@H]3CN(S(=O)(=O)c4ccc(C)cc4)[C@H]([C@H]31)[C@H](c1ccco1)N2S(=O)(=O)c1ccc(C)cc1 | > 100 µM | > 100 µM | > 100 µM | > 100 µM | > 100 µM | > 100 µM | 45.3 µM | > 100 µM | > 100 µM | 58.3 µM | > 100 µM | > 100 µM | > 100 µM |  |  |  |  |  | 
CN(C)CCC(=O)[C@@]1(O)CC[C@H]2[C@@H]3CC=C4C[C@@H](O)CC[C@]4(C)[C@H]3CC[C@@]21C | 31 µM | 37.5 µM | 29.5 µM | 50.2 µM | 8.61 µM | > 73.9 µM | 32.9 µM | 37.1 µM | > 64.8 µM | 28.8 µM | 28.7 µM | 29.7 µM | 51.1 µM |  |  |  |  |  | 
CCCCCCCCCCCCCCCCCCN(C)CC(COC)OP(=O)([O-])OCC[N+](C)(C)C (centres undefined) | 2.44 µM | 4.66 µM | 15.6 µM | 15.6 µM | 13 µM | 4.71 µM | 2.6 µM | 30.2 µM | 2.5 µM | 26.6 µM | 20.2 µM | 14 µM | 17.8 µM |  |  |  |  |  | 
O=C1c2cc3c(cc2[C@@H]2C(O)[C@H]4O[C@H]4C4CCN1C42)OCO3 (some centres undefined) |  | > 37.5 µM | > 37.5 µM | > 37.5 µM | > 37.5 µM | > 37.5 µM | > 37.5 µM | > 37.5 µM | > 37.5 µM | > 37.5 µM | > 37.5 µM |  |  |  |  |  |  |  | 
NC1=NC(c2ccc(Cl)cc2)=CC(c2cccc(Cl)c2)S1 (centres undefined) | 55.5 µM | > 100 µM | 59.9 µM | > 100 µM | > 100 µM | > 100 µM | 33.1 µM | 55.5 µM | 44.9 µM | > 100 µM | 99.1 µM |  | 66.7 µM |  |  |  |  |  | 
c1ccc(-c2cc3nc4ccccc4nc3cc(-c3ccccc3)[nH][nH]2)cc1 | > 100 µM | > 100 µM | 77.9 µM | > 100 µM | > 100 µM | 88.7 µM | > 100 µM | > 100 µM | > 100 µM | > 100 µM | > 100 µM | 55.7 µM | > 100 µM |  |  |  |  |  | 
CCn1c2ccccc2c2ccc(C3C4C(=O)N(c5cccc6ccccc56)C(=O)C4ON3C(C(N)=O)c3ccccc3)cc21 (centres undefined) | > 25 µM | > 25 µM | > 25 µM | > 25 µM | > 25 µM | > 25 µM | > 25 µM | > 25 µM | > 25 µM | > 25 µM | > 25 µM | 6.96 µM | > 25 µM |  |  |  |  |  | 
C/C=C\C1OC1(C)c1cc(=O)c2c(C)cc3c(c2o1)C(=O)c1c(O)c(C2CC(C)(N(C)C)C(OC(C)=O)C(C)O2)cc(C2CC(N(C)C)C(O)C(C)O2)c1C3=O (centres undefined) | 0.0394 µM | 1.93 µM | 0.00575 µM | 0.0369 µM | 0.0121 µM | 0.00762 µM | 0.00901 µM | 0.00657 µM | 0.103 µM | 0.0566 µM | 0.00485 µM | 0.0215 µM | 0.0223 µM |  |  |  |  |  | 
